Data: ChEMBL document CHEMBL6115026, “Synthesis and Biological Evaluation of Peripheral 5HT2B Antagonists for Liver Fibrosis” (J Med Chem, 2025)
pIC50: −log10 of the molar value.

How the values were obtained:
[1] = target: T1, 5-hydroxytryptamine receptor 2B (Homo sapiens, UniProt P41595); assay: Antagonist activity at 5HT2B (unknown origin) expressed in FRT cells co-expressing ANO1 and YFP assessed as inhibition of 5HT-induced increase in iodide influx at 1 uM preincubated with compound for 10 mins followed by 5-HT addition and measured after 8 sec by YFP fluorescence quenching analysis relative to control; type: cell-based; conditions: filed as antagonist, time 608.0 sec
T1 sequence (P41595 whole entry): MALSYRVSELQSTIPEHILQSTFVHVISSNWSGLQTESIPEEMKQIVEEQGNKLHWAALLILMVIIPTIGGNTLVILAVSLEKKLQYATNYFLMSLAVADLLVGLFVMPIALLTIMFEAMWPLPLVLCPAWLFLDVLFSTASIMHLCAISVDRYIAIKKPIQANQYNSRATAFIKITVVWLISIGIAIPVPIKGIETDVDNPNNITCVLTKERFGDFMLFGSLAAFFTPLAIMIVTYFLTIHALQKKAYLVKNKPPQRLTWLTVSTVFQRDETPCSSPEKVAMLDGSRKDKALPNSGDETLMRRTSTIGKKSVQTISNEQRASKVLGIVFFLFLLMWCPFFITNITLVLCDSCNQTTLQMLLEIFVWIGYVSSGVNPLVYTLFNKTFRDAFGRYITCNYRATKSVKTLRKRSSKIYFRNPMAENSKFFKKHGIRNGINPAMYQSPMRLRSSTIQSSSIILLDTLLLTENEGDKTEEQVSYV

[2] = target: T1, 5-hydroxytryptamine receptor 2B; assay: Antagonist activity at 5HT2B (unknown origin) expressed in FRT cells co-expressing ANO1 and YFP assessed as inhibition of 5HT-induced increase in iodide influx preincubated with compound for 10 mins followed by 5-HT addition and measured after 8 sec by YFP fluorescence quenching analysis; type: cell-based
[3] = Ratio of drug concentration in male mouse brain to plasma at 5 mg/kg, ip measured after 0.5 hrs; type: ADME, organism-based; conditions: brain and plasma, read-out: BPR
[4] = Drug concentration in male mouse brain at 5 mg/kg, ip measured after 0.5 hrs; type: ADME, organism-based; conditions: read-out: Ct
[5] = Drug concentration in male mouse plasma at 5 mg/kg, ip measured after 0.5 hrs; type: ADME, organism-based

Compound | inhibition [1] [%] | pIC50 [2] | Kp at 0.5 h [3] | concentration at 0.5 h [4] [ng/g] | concentration at 0.5 h [5] [ng/mL]
COc1ccc(S(=O)(=O)NC2CCN(C(=O)OC(C)(C)C)CC2)cc1C(=O)Nc1ccccc1Cl | 47.1 |  |  |  | 
COc1ccc(S(=O)(=O)N[C@H]2CCN(C(=O)OC(C)(C)C)C2)cc1C(=O)Nc1ccccc1Cl | 96.1 |  |  |  | 
COc1ccc(S(=O)(=O)N[C@H]2CCOC2)cc1C(=O)Nc1ccccc1Cl | 98.8 | 8.74 | 0.53 | 51.7 | 99.2

More lines, now with the values ahead:

inhibition [1] [%] | pIC50 [2] | Kp at 0.5 h [3] | concentration at 0.5 h [4] [ng/g] | concentration at 0.5 h [5] [ng/mL] | Compound
103 | 8.00 |  |  |  | COc1ccc(S(=O)(=O)N[C@H]2CCN(C(=O)C[C@H](N)C(=O)O)C2)cc1C(=O)Nc1ccccc1Cl
100 |  |  |  |  | COc1ccc(S(=O)(=O)N[C@@H]2CCN(C(=O)C[C@H](N)C(=O)O)C2)cc1C(=O)Nc1ccccc1Cl
